| Structure (SMILES) | melting point |
| --- | --- |
| COC(=O)CCc1ccc(O)cc1 | 37 to 41 °C |
| O=C(NO)c1ccc(Cl)cc1O | 195 to 199 °C |
| Cc1ccc2ccc(C)cc2c1 | 97 °C |
| CC1=NN(CN2CCCCC2)C(=O)/C1=N\Nc1ccc(Cl)cc1Cl | 122 to 124 °C |
| C[C@]12CC[C@H]3[C@@H](CC=C4C[C@@H](O)CC[C@@]43C)[C@@H]1CC[C@@H]2O | 178 to 182 °C |
| O=[N+]([O-])c1ccc(NN=CC2=C(/C=C/c3ccccc3)CCCC2)c([N+](=O)[O-])c1 | 261 to 262 °C |
| O=[N+]([O-])c1cc(O)ccc1Cl | 127 °C |
| O=[N+]([O-])c1ccc(F)c2nonc12 | 52 °C |
| COc1ccc([N+](=O)[O-])cc1C(F)(F)F | 79 to 81 °C |
| O=C(Cl)c1nccs1 | 54 to 58 °C |
| Cc1nn(-c2ccccc2)nc1C(=O)NNS(=O)(=O)c1ccccc1 | 217 to 219 °C |
| CON1C(=O)C(=O)N(OC)C2CCCCC21 (centres undefined) | 128 to 131 °C |
| O=C1c2cccc(O)c2C(=O)c2cccc(O)c21 | 280 °C |
| CSC(=NS(=O)(=O)c1ccc(Br)cc1)SC | 100 to 105 °C |
| CN(C)c1ccc2c(c1)Sc1cc(N(C)C)ccc1N2C(=O)c1ccccc1 | 195 °C |
| Cc1cc(Cl)cc(Cl)c1N=C=S | 57 to 58 °C |
| O=c1cc(C(F)(F)F)n2nc(-c3ccc(Cl)cc3)cc2[nH]1 | 155 °C |
| CCCCCCCOc1ccc(N=[N+]([O-])c2ccc(OCCCCCCC)cc2)cc1 | 73 to 122 °C |
| CCOc1ccccc1F | -16.7 °C |
| COC(C(=O)O)c1ccccc1 (racemic) | 68 to 72 °C |
| Cc1ccc(C(c2ccc(C)o2)c2ccccc2O)o1 | 65 °C |

| Structure (SMILES) | melting point |
| --- | --- |
| FC1(F)C(F)(F)C(F)(Cl)C1(F)Cl (centres undefined) | -15 °C |
| Clc1cc2c(cc1Cl)Oc1c(cc(Cl)c(Cl)c1Cl)O2 | 240 °C |
| Nc1cc(Cl)c(Cl)c(Cl)c1 | 99 °C |
| CC(=O)OCC1=C(C(=O)O)N2C(=O)C(N)C2SC1 (centres undefined) | 300 °C |
| CC(C)OC(=O)C1(S(=O)(=O)c2ccc([N+](=O)[O-])cc2)CCCCCC1 | 83.5 °C |
| Nc1c(F)cc(Br)cc1Br | 63 °C |
| CC(C)(C)OC(=O)N1CCC(OCC(=O)NC2CC2)CC1 | 86 °C |
| Oc1ccc2ccccc2c1/N=N/c1ccc(/N=N\c2ccccc2)cc1 | 199 °C |
| CC12CCC(O)(CC1)CC2=O | 55 to 56 °C |
| CC(=O)OC(C(=O)c1ccccc1)c1ccccc1 (centres undefined) | 82 °C |
| O=C(O)c1cccnc1Oc1ccc2c(c1)OCO2 | 181 to 183 °C |
| O=C(O)c1cc(Br)c(Br)o1 | 171 °C |
| CC1(C)C=C(C(=O)O)C(C)(C)N1O | 202 °C |
| O=[N+]([O-])c1ccc(Br)s1 | 44 °C |
| COc1cc(C(F)(F)F)nc2ccc(C)c([N+](=O)[O-])c12 | 181 to 183 °C |
| S=C(NN=Cc1c(-c2ccc(Cl)cc2)[nH]c2ccccc12)Nc1ccc(Cl)cc1 | 215 to 217 °C |
| CCCCCCCCCCCCC(CCCCCCCCCCC)CCCCCCCCCCCC | 9.7 °C |
| O=C(O)CCCCCCCc1ccccc1 | 28 °C |
| Oc1cccnc1I | 193 °C |
| Nc1cc(C(=O)O)ccc1C(=O)O | 324 °C |
| C1SSCSSS1 | 60.5 °C |

| Structure (SMILES) | melting point |
| --- | --- |
| FC(F)(F)c1cccc(C(F)(F)F)n1 | 57 °C |
| CC=Cc1cc2c(c(=O)o1)C(=O)C(O)C(C)O2 (centres undefined) | 222 °C |
| CC(C)C(Br)C(=O)NC(N)=O (centres undefined) | 154 °C |
| COc1cccc2cc(C(=O)O)c(=O)oc12 | 214 to 216 °C |
| CC(C)(O)CCc1ccccc1 | 24.5 °C |
| CC12CCC(O)CC1CC1(OCCO1)C1C2CCC2(C)C1CCC21OCCO1 (centres undefined) | 99 to 103 °C |
| COc1ccc(C2NCCc3sccc32)cc1 (centres undefined) | 69 to 71 °C |
| Fc1cnccc1I | 88 °C |
| CC(C)NCC(O)COc1ccc(COCCOC(C)C)cc1 (centres undefined) | 100 °C |
| CCC1(c2ccccc2)NC(=O)N(C)C1=O (centres undefined) | 136 °C |
| O=[N+]([O-])c1c(O)ncnc1O | 300 °C |
| Brc1n[nH]c(Br)c1Br | 190 to 192 °C |
| COP(=S)(OC)Oc1ccc([N+](=O)[O-])c(Cl)c1 | 21 °C |
| CC(F)(Cl)CCl (centres undefined) | -91.7 °C |
| O=C1C=CC(=O)N1c1cccc(N2C(=O)C=CC2=O)c1 | 198 to 204 °C |
| C#CC(O)CCC (centres undefined) | -80 °C |
| CCOOCC | -70 °C |
| CNCC(O)c1ccc(O)cc1 (centres undefined) | 184 °C |
| CCCc1ssc(=S)c1C | 49 °C |
| CC(O)C(C)C(C)(C)C (centres undefined) | 27 °C |
| Cc1ccc(C)c2c1C(=O)OC2=O | 195 °C |

| Structure (SMILES) | melting point |
| --- | --- |
| CC1=NNC(=O)C1(Br)Br | 131 °C |
| Cc1nc(C2CCN(C(=O)OC(C)(C)C)CC2)sc1C=O | 220 °C |
| CCCCCCCCCCCC(=O)OCC | -2 °C |
| OCc1cccc(-c2ccccc2)c1 | 55 °C |
| CNCCCC12CCC(c3ccccc31)c1ccccc12 | 92 °C |
| C#CCCCCCCCCCCC | -5 °C |
| Nc1ccc(N=Nc2ccccc2)cc1 | 127 °C |
| CN(C)P(=O)(N(C)C)N(C)C | 7.2 °C |
| O=[N+]([O-])c1ccc(Cl)cc1O | 41 °C |
| Cc1cccc(C)c1NC(=O)c1ccc[nH]c1=O | 266 °C |
| Oc1ncnc2[nH]ncc12 | 350 °C |
| COc1cc(N)c(Cl)cc1C(=O)NC1CCN(Cc2ccccc2)CC1 | 194 °C |
| Clc1cc(Cl)c2c(oc3ccc(Cl)c(Cl)c32)c1Cl | 210 °C |
| Cc1nc(-c2ccccc2)sc1Br | 60 °C |
| CCCCC(=O)c1ccc(F)cc1 | 27 °C |
| CC(C)c1cc(C(C)C)c(S(N)(=O)=O)c(C(C)C)c1 | 115 °C |
| CC(CCC(=O)O)C1CCC2C3C(=O)CC4CCCCC4(C)C3CCC12C (centres undefined) | 145 °C |
| COc1ccc(-c2ccccc2)cc1NC(=O)C(F)(F)C(F)(F)C(F)(F)C(F)(F)C(F)(F)C(F)(F)C(F)(F)C(F)(F)F | 118 °C |
| COC(=O)c1cscc1OC | 70 to 71 °C |

Further lines, results first:

| melting point | Structure (SMILES) |
| --- | --- |
| 151 to 156 °C | COc1ccc(C2(C(=O)O)CCCC2)cc1 |
| 70 to 72 °C | Clc1ccc(OCc2ccccc2)cc1 |
| 121 °C | CC(=O)Oc1cc(C(F)(F)F)ccc1C(=O)O |
| 30 °C | O=C=Nc1cc(Cl)ccc1Cl |
| 75 °C | C=CCC(CC)(CC)C(N)=O |
| 123 to 124 °C | N#Cc1ccc(-c2ccc(C(F)(F)F)cn2)cc1 |
| 52 °C | OCc1ccc(SC(F)(F)F)cc1 |
| 95.5 °C | O=C(Oc1ccc2ccccc2c1)c1ccccc1O |
| 68 °C | CCCCCc1ccc(C(C)=NO)cc1 |
| 30 °C | O=C(Cl)/C=C/c1cccc(C(F)(F)F)c1 |
| 47.5 °C | CCC(C(=O)O)c1ccccc1 (centres undefined) |
| 87.5 °C | Nc1c(Br)cccc1Br |
| 183 to 186 °C | NC(=S)c1ccc2c(c1)OCO2 |
| 72 to 74 °C | Nc1cccc(Cn2ccnc2)c1 |
| 181 °C | c1ccc(CC(=NNc2ccccc2)/C(Cc2ccccc2)=N\Nc2ccccc2)cc1 |
| 27 °C | CCCCCCCc1ccc(-c2ccccc2)cc1 |
| 156 to 157 °C | O=Cc1cn(S(=O)(=O)c2ccccc2)c2ccccc12 |
| 295 to 297 °C | O=C(O)c1ccc(C(=O)O)c(Br)c1 |
| 147 to 148 °C | O=C(O)C12CC3CC(CC(Br)(C3)C1)C2 |
| 30 °C | Clc1ncc(Br)c(Cl)n1 |
| 105 °C | CC1CCC2C1C1C(CCC2(C)O)C1(C)C (centres undefined) |
| 207 °C | CCOC(=O)NNC(=O)Nc1ccc(Cl)c(Cl)c1 |
| 158 °C | O=C(NC(Cc1ccc(Br)s1)C(=O)O)OCC1c2ccccc2-c2ccccc21 (centres undefined) |
| 157 to 158 °C | Cc1nc2ccccn2c1CO |

| melting point | Structure (SMILES) |
| --- | --- |
| 262 °C | COc1ccc(C2CC(=O)c3c(O)cc(OC4OC(COC5OC(C)C(O)C(O)C5O)C(O)C(O)C4O)cc3O2)cc1O (centres undefined) |
| 130 °C | O=Cc1ccc(OCc2ccc([N+](=O)[O-])cc2)cc1 |
| 200 to 210 °C | CS(=O)(=O)C1CS(=O)(=O)CC1O (centres undefined) |
| 34 °C | O=C(O)C(F)(F)C(F)(F)C(F)(F)C(F)(F)C(F)(F)C(F)F |
| 164 to 166 °C | CS(=O)(=O)c1scc(-c2ccccc2)c1C#N |
| 136 °C | NC(=O)C(F)(F)C(F)(F)C(F)(F)C(F)(F)C(F)(F)C(F)(F)F |
| 108 to 110 °C | O=C(O)C1(O)CC1 |
| 236 °C | Cc1cc2c(cc1S(N)(=O)=O)S(=O)(=O)CCC2 |
| 39.5 °C | O=CNC1CCCCC1 |
| 93 to 94 °C | COC(=O)CC1C(=O)NC(C)=C1C(=O)OC (centres undefined) |
| -25 °C | CO[Si](OC)(OC)c1ccccc1 |
| 196 °C | CC(=O)c1ccc2c(c1)NC(=O)CO2 |
| 255 °C | COc1ccccc1N/N=C(/C#N)c1nc2ccccc2c(=O)[nH]1 |
| 100 °C | COC(=O)C1(C(=O)OC)Cc2c(C)cccc2C(=O)O1 |
| 108 to 111 °C | CC1(C)N=C(c2ccccc2)C=[N+]1[O-] |
| 138 to 139 °C | NCc1cccc2c(Br)cccc12 |
| 25 °C | CN1CCN(CCCN2c3ccccc3Sc3ccc(C(F)(F)F)cc32)CC1 |
| 210 to 211 °C | CC1(C)OC(C)(C(O)(c2cccc3ccccc23)c2cccc3ccccc23)CCC1C(=O)O (centres undefined) |
| 147 °C | CCOC(=O)C1=C(C)N(C)C(=S)NC1c1ccccc1 (centres undefined) |
| 73 to 87 °C | Cc1ccc(Sc2ccc(C(=O)c3ccccc3)cc2)cc1 |
| 109 to 110 °C | CC(=O)OC1CCC2(C)C3CCC4=C(CCC4(C)C#CCl)C3CCC2(C)C1 (centres undefined) |
| 294 °C | Cn1c(=O)c(C2=NNC(=O)C2=NNc2ccncc2)c(O)c2ccccc21 |
| 173 to 175 °C | CC(C)n1cc(C(N)=S)c(=O)n(Cc2ccccc2)c1=O |

Source: a melting point compilation (Tetko et al.)
